Test results published in patent US20110065760A1, “COMPOUNDS FOR THE INHIBITION OF ROTAMASES AND USE THEREOF” (Jerini AG, priority 2002, published 2011).
pIC50: −log10 of the molar value. Read-outs that look alike come from different tables or passages of the source.

Columns and labels:
EcParvulin = EcParvulin (Escherichia coli, UniProt P0A9L5); assay: protease-coupled PPIase assay, EcParvulin; format: biochemical
[1] = test system: cyclin D1 in MCF-7 and HeLa cells; assay: Cyclin D1 down regulation (western blot marker analysis); format: cell-based, human
Protocol: MCF-7 (5×10^5 cells/well) and HeLa cells (1.5×10^5 cells/well) were seeded in 6-well plates and incubated at 37° C. over night. Compounds or DMSO (final solvent concentration 0.1%) were added to the cells and incubated for different times as indicated. Subsequently, cells were lysed in RIPA buffer for 30 min on ice and centrifuged for 20 min at 4° C. After addition of electrophoresis sample buffer (4×) and 50 mM DTT to the supernatant, samples were boiled for 4 min at 95° C. Samples (equivalent to 2×10^5 cells/well) were run on a 15% SDS gel followed by blotting onto PVDF membrane.
The membrane was blocked for 1 h in 10 mM Tris (pH 7.5), 100 mM NaCl, 0.1% Tween-20 and 5% non-fat dry milk (blocking buffer) and incubated for 1 h with mouse anti-hCyclin D1 monoclonal antibody (clone DCS-6, BD Biosciences) diluted to 1 μg/ml in blocking buffer. Blots were washed 3×10 min with 10 mM Tris (pH 7.5), 100 mM NaCl, 0.1% Tween-20 (washing buffer) and incubated with 0.7 μg/ml peroxidase-conjugated sheep anti-mouse IgG (Sigma) in blocking buffer for 1 h. After washing 3×10 min with washing buffer, the plot was developed with the ECL+ detection kit (Amersham Biosciences).

[2] = WST-1 cytotoxicity assay, Caco-2; format: cell-based; details: human, Caco-2 cells (colon adenocarcinoma); WST-1, 48 h incubation; read-out: EC50 class, cytotoxic effect, CL-4 (Caco-2)
Protocol: (§1) For this cytotoxic evaluation of the compounds the commercial available WST-1 assay (Roche) was used according to the manufacturer's instructions. The assay is based on the cleavage of the tetrazolium salt WST-1 by mitochondrial dehydrogenases found in viable cells. In general compounds were added to cells cultured in 96-well plates at 37° C. After 48 h of incubation 10 μl of WST-1 solution was added. The formazan dye was analyzed with an ELISA plate reader at (450 vs. 620) nm. CL-1: human acute myeloid leukemia, HL-60 CL-2: human cervix carcinoma, HeLa CL-3: human prostate carcinoma, PC-3 CL-4: human colon adenocarcinoma, Caco-2 CL-5: human breast adenocarcinoma, MCF-7

hFKBP12 = hFKBP12 (Homo sapiens, UniProt P62942); assay: protease-coupled PPIase assay, hFKBP12; format: biochemical; details: 20 nM hFKBP12, substrate Suc-Ala-Phe-Pro-Phe-pNA, chymotrypsin, pH 7.8, 6° C.; read-out: IC50 class, Target T-2 (hFKBP12)
hCyp18 = hCyp18 (Homo sapiens, UniProt P62937); assay: protease-coupled PPIase assay, hCyp18; format: biochemical; details: 10 nM hCyp18, substrate Suc-Ala-Phe-Pro-Phe-pNA, chymotrypsin, pH 7.8, 6° C.; read-out: IC50 class, Target T-3 (hCyp18)
Hela cells = assay: DAPI staining; format: cell-based, human; details: FIG. 3
Protocol: Hela cells grown on poly-L-Lys-coated coverslips were fixed with 2% paraformaldehyde/MeOH.
Cellular DNA was stained with DAPI staining buffer (100 mM Tris (pH 7.4), 150 mM NaCl, 1 mM CaCl2, 0.5 mM MgCl2, 0.1% nonidet P-40, 1 μg/ml DAPI (Molecular Probes)). All the steps were performed at room temperature, and cells were washed two times with PBS after each step. Finally, cells were mounted in 80% glycerol/PBS.

[3] = WST-1 cytotoxicity assay, HL-60; format: cell-based; details: human, HL-60 cells (acute myeloid leukemia); WST-1, 48 h incubation; read-out: EC50 class, cytotoxic effect, CL-1 (HL-60)
Protocol: as §1

hPin1 = hPin1 (Homo sapiens, UniProt Q13526); assay: protease-coupled PPIase assay, hPin1; format: biochemical; details: 6 nM hPin1, substrate Ac-Ala-Ala-Ser(PO3H2)-Pro-Arg-pNA, trypsin, pH 7.8, 6° C.; read-out: IC50 class, Target T-1 (hPin1)
LpCyp18 = LpCyp18 (Legionella pneumophila, UniProt Q5ZRZ4); assay: biochemical; details: IC50 class, Target T-4 (LpCyp18)
[4] = WST-1 cytotoxicity assay, HeLa; format: cell-based; details: human, HeLa cells (cervix carcinoma); WST-1, 48 h incubation; read-out: EC50 class, cytotoxic effect, CL-2 (HeLa)
Protocol: as §1

[5] = WST-1 cytotoxicity assay, PC-3; format: cell-based; details: human, PC-3 cells (prostate carcinoma); WST-1, 48 h incubation; read-out: EC50 class, cytotoxic effect, CL-3 (PC-3)
Protocol: as §1

[6] = WST-1 cytotoxicity assay, MCF-7; format: cell-based; details: human, MCF-7 cells (breast adenocarcinoma); WST-1, 48 h incubation; read-out: EC50 class, cytotoxic effect, CL-5 (MCF-7)
Protocol: as §1

Trypsin = biological target: T1, Trypsin (UniProt P00760); assay: trypsin assay; format: biochemical; details: 0.1 μg/ml trypsin, 120 μM Ac-Ala-Ala-Ser(PO3H2)-Pro-Arg-pNA, pH 7.8, 30° C., 30 min incubation; read-out: IC50 class, Target T-7 (Trypsin)
T1 sequence (P00760 1-246): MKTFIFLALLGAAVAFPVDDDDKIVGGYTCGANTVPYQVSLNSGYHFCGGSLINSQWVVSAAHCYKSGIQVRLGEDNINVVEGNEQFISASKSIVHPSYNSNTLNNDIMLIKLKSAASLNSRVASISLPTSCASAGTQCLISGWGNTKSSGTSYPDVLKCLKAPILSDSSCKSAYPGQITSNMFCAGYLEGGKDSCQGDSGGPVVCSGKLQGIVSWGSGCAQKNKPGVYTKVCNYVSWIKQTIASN
Protocol: (§2) In order to investigate the impact of some of the inventive compounds on the activity of key proteases the following assay was performed: Protease activities were measured spectrophotometrically at 30° C. according to Schomburg and Salzmann (Schomburg, B.; Salzmann M. GBF: Enzyme Handbook. Springer Verlag, Berlin Heidelberg, 1991) and Bergmeyer et al. (Bergmeyer, H. U.; Bergmeyer, J.; Graβl, M. Methods of Enzymatic Analysis, Vol. V Enzymes 3: Peptides, Proteinases and Their Inhibitors. pp 55-371, VCH, Weinheim, 1988). The release of 4-nitroaniline was determined at 390 nm with a Spectramax Plus UV/Vis spectrophotometer (Molecular Devices). The cathepsin B assay was performed in a reaction mixture containing 0.2 μg/ml cathepsin B, 2 mM Z-Arg-Arg-pNA in 88 mM KH2PO4, 12 mM Na2HPO4, 1.33 mM EDTA, 0.03% Brij 35 (pH 5.8). The trypsin assay was carried out in a reaction mixture containing 0.1 μg/ml trypsin and 120 μM Ac-Ala-Ala-Ser(PO3H2)-Pro-Arg-pNA in 35 mM HEPES (pH 7.8) and the papain assay in a mixture consisting of 16 μg/ml papain and 2 mM Bz-DL-Arg-pNA in 10 mM Na2HPO4, 2 mM L-Cys, 5 mM EDTA (pH 6.5). In general, reactions were started by addition of peptide substrate after a 30 min incubation of 1-100 μM effector with given concentrations of enzyme.

cathepsin B = cathepsin B (Homo sapiens, UniProt P07858); assay: cathepsin B assay; format: biochemical; details: 0.2 μg/ml cathepsin B, 2 mM Z-Arg-Arg-pNA, pH 5.8, 30° C., 30 min incubation; read-out: IC50 class, Target T-8 (Cathepsin)
Protocol: as §2

Papain = biological target: T2, Papain (Carica papaya, UniProt P00784); assay: papain assay; format: biochemical; details: 16 μg/ml papain, 2 mM Bz-DL-Arg-pNA, pH 6.5, 30° C., 30 min incubation; read-out: IC50 class, Target T-6 (Papain)
T2 sequence (P00784 134-345): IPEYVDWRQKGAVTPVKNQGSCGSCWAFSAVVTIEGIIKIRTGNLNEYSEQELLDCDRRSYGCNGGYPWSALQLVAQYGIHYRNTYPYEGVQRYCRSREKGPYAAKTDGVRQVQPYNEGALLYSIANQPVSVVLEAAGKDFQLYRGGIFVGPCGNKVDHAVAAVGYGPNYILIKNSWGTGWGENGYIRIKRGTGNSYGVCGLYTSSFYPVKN
Protocol: as §2

HL-60 cells = assay: FACS measurements and TUNEL assay (Apo-Direct kit); format: cell-based, human; details: FIG. 2
Source text: Enari M. Sakahira H. Yokoyama H. Okawa K. Iwamatsu A. Nagata S. A caspase-activated DNase that degrades DNA during apoptosis, and its inhibitor ICAD [erratum appears in Nature 1998 May 28; 393(6683):396.]. Nature. 391:43-50, 1998 • Darzynkiewicz Z. Juan G. Li X. Gorczyca W. Murakami T. Traganos F. Cytometry in cell necrobiology: analysis of apoptosis and accidental cell death (necrosis). Cytometry. 27:1-20, 1997
Apoptotic HL-60 cells were detected by FACS analysis of FITC-dUTP-labelled DNA breaks using the Apo-Direct kit (BD-Pharmingen) according to the manufacturer's protocol.

[7] = test system: tumor cell lines (HL-60, HeLa, PC-3, Caco-2, MCF-7); assay: WST-1 cytotoxicity assay, tumor cell lines (panel statement); format: cell-based, human; details: WST-1, 48 h; table 4
Protocol: as §1

Chain of hPin1 (Q13526 whole entry): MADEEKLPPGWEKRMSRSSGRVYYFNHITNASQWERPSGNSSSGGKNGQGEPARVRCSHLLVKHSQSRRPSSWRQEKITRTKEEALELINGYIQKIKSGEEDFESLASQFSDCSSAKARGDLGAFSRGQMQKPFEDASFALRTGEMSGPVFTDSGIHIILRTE
Chain of hFKBP12 (P62942 whole entry): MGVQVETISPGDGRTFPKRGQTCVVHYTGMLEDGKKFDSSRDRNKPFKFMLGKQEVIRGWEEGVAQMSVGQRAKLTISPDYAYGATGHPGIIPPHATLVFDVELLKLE
Chain of LpCyp18 (Q5ZRZ4 1-164): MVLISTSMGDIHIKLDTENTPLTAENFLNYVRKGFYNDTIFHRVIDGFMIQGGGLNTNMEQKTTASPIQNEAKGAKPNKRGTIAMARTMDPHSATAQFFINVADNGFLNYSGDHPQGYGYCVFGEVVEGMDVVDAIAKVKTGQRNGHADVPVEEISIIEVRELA
Chain of hCyp18 (P62937 whole entry): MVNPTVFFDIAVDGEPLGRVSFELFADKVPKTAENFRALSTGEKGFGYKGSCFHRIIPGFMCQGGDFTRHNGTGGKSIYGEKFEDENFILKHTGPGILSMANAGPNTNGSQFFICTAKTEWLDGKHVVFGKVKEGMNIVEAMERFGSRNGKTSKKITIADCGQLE
Chain of EcParvulin (P0A9L5 whole entry): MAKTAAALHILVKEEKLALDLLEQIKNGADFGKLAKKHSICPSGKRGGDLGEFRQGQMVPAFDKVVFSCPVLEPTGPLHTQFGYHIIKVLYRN

| Compound | pIC50 (EcParvulin; 20 nM EcParvulin, substrate Suc-Ala-Phe-Pro-Phe-pNA, chymotrypsin, pH 7.8, 6° C., read-out: IC50 class, Target T-5 (EcParv)) | cyclin D1 down regulation [1] | EC50 at 48 h [2] [µM] | pIC50 (hFKBP12) | pIC50 (hCyp18) | induction of apoptosis (DAPI staining, fluorescence microscopy) (Hela cells) | EC50 at 48 h [3] [µM] | pIC50 (hPin1) | pIC50 (LpCyp18) | EC50 at 48 h [4] [µM] | EC50 at 48 h [5] [µM] | EC50 at 48 h [6] [µM] | pIC50 (Trypsin) | pIC50 (cathepsin B) | pIC50 (Papain) | induction of apoptosis (FACS analysis of FITC-dUTP-labelled DNA breaks) (HL-60 cells) | cytotoxic effect on the tumor cell lines tested [7] | pIC50 (EcParvulin) |
| --- | --- | --- | --- | --- | --- | --- | --- | --- | --- | --- | --- | --- | --- | --- | --- | --- | --- | --- |
| CC(C)(C)CC(C)(C)NC(=O)Nc1cc(Cl)cc(Cl)c1O [Compound 30] | < 4.00 | particular relevance | < 10 | < 4.00 | < 4.00 | induce apoptosis | < 10 | 5.00 to 6.00 | < 4.00 | – | – | – | – | – | – | – | – | – |
| Cc1c(Cl)cc(NC(=S)Nc2ccccc2C(F)(F)F)c(O)c1Cl [Compound 261] | – | – | 10 to 50 | – | – | – | < 10 | – | – | 10 to 50 | 10 to 50 | 10 to 50 | – | – | – | – | – | – |
| Cc1c(Cl)cc(NC(=S)Nc2ccc(C(F)(F)F)cc2)c(O)c1Cl [Compound 264] | – | particular relevance | < 10 | – | – | induce apoptosis | < 10 | > 6.00 | – | < 10 | < 10 | < 10 | < 4.00 | < 4.00 | < 4.00 | induce apoptosis | particular relevance | – |
| Oc1c(NCc2ccccc2Sc2ccc(Cl)cc2)ccc(F)c1F [Compound 399] | – | particular relevance | – | < 4.00 | 4.00 to 4.30 | induce apoptosis | < 10 | > 6.00 | 4.00 to 4.30 | < 10 | < 10 | < 10 | – | 4.30 to 5.00 | < 4.00 | – | particular relevance | 4.30 to 5.00 |
| Cc1c(Cl)cc(NC(=O)NCCCCCCNC(=O)Nc2cc(Cl)c(C)c(Cl)c2O)c(O)c1Cl [Compound 673] | – | particular relevance | – | – | – | – | – | > 6.00 | – | – | – | < 10 | – | – | – | – | particular relevance | – |
| CC(C)(C)CC(C)(C)NC(=O)Nc1cc(Cl)c(O)c(Cl)c1 [Compound 703] | – | – | 10 to 50 | < 4.00 | < 4.00 | – | 10 to 50 | > 6.00 | < 4.00 | 10 to 50 | 10 to 50 | – | 4.00 to 4.30 | < 4.00 | < 4.00 | – | particular relevance | 5.00 to 6.00 |
| CC(CC(=O)Nc1cc(Cl)c(O)c(Cl)c1)CC(C)(C)C (centres unmarked) [Compound 1273] | – | – | 10 to 50 | < 4.00 | < 4.00 | – | 10 to 50 | > 6.00 | < 4.00 | 50 to 100 | 10 to 50 | – | < 4.00 | < 4.00 | < 4.00 | – | particular relevance | 5.00 to 6.00 |
| CC(C)=CC(=O)Nc1cc(Cl)c(O)c(Cl)c1 [Compound 1296] | – | – | – | < 4.00 | 4.30 to 5.00 | – | 50 to 100 | 5.00 to 6.00 | < 4.00 | – | – | – | < 4.00 | < 4.00 | < 4.00 | – | – | 4.30 to 5.00 |
